Assays:
pyruvate dehydrogenase = biological target: T1, pyruvate dehydrogenase (Bos taurus, UniProt A7MB35+P11966); experiment: Pyruvate Dehydrogenase (PDH) Enzyme Activity Microplate Assay; type: biochemical, bovine; settings: vehicle mean as 100 percent
T1 construct: purchased Abcam ab110338 (lysate); ab109902 (assay kit); host or cells: bovine heart mitochondrial lysate
Protocol: To examine the effect of α-KB on pyruvate dehydrogenase, the Pyruvate Dehydrogenase (PDH) Enzyme Activity Microplate Assay Kit (Abcam, ab109902) was used. The assay was performed according to the protocol provided. Detergent was added to bovine heart mitochondrial lysate (Abcam, ab110338) and followed by an incubation at 4° C. for 20 minutes to release PDH. The sample was then centrifuged at 14,000×g for 10 minutes. Supernatant was diluted with the incubation buffer and added to a PDH antibody-coated 96-well plate. After 3 hours incubation followed by 2× wash with stabilizer buffer, the wells were added with 200 μL of reaction mix containing 10, 20, 50, 200, and 800 μM α-KB or vehicle control (distilled water). Each condition was performed in triplicates. Kinetic measurements of absorbance at 450 nm with 1 minute intervals were taken, and PDH activity was calculated from the slope of the absorbance to time. The readings were normalized to vehicle mean (as 100 percent).

male mice = experiment: In vivo ischemia reperfusion injury, coronary artery occlusion; set-up: species or system mouse; settings: 800 μM single bolus via tail vein at onset of reperfusion, 24 hours reperfusion, n=6
Protocol: The LAD is occluded in male mice for 30 minutes followed by a 24 hour reperfusion. At the onset of reperfusion one bolus of α-KB or PBS was applied via tail vein.
To examine the cardioprotective role of α-KB, an in vivo model of ischemia reperfusion injury was used. The left coronary artery was occluded for 30 minutes in male mice followed by 24 hours of reperfusion. One single bolus of PBS (vehicle control) or α-KB (800 μM) was applied through the tail vein at the onset of reperfusion (FIG. 9A).

C2C12 Cells = experiment: Oxygen consumption rate (OCR) in C2C12 cells, Seahorse XF-24; type: cell-based, mouse; settings: 1 hour treatment
Protocol: Measurement of oxygen consumption rates (OCR). OCR measurements were made using a Seahorse XF-24 analyzer (Seahorse Bioscience). C2C12 Cells were seeded in Seahorse XF-24 cell culture microplates at 30,000 cells per well in DMEM media supplemented with 10% FBS and 10 mM glucose, and incubated at 37° C. and 5% CO2 overnight. Treatment with α-KB or DMSO (vehicle control) was for 1 hour. Cells were washed in unbuffered DMEM medium (pH 7.4, 10 mM glucose) just before measurements, and maintained in this buffer with indicated concentrations of α-KB. OCR was measured three times under basal conditions and normalized to protein concentration per well.

GMC101 C. elegans strain = experiment: Paralysis in C. elegans Alzheimer's disease model; type: in vivo, Caenorhabditis elegans; settings: 4 mM, 30° C.
Protocol: Worms were age-synchronized by performing a timed egg lay for 3 hours with about 100 gravid adults and the eggs placed in a 20° C. incubator. Once the eggs had developed to the L4 stage at 42 hours post egg lay, they were picked onto NGM treatment plates containing 49.5 μM 5-fluoro-2′-deoxyuridine (FUDR, Sigma F0503) to prevent progeny production and either 4 mM α-KB or vehicle (water) control. The worms were then shifted to 30° C. to induce amyloid-beta aggregation and paralysis. […] Most paralyzed worms could still move their heads and part of their body. All worms were transferred to fresh treatment plates on Day 4.

HCV = experiment: Renilla reporter HCV infection of Huh7.5 cells, luciferase activity; type: cell-based; settings: 1 mM and 1 μM, 72 hours post treatment
Protocol: As subjects age, their susceptibility to infection increases. Therefore, to determine whether α-KB reduces ones susceptibility to age-related infection, Huh7.5 cells were infected with the Renilla reporter HCV for 5 hours and subsequently treated with 1 mM and 1 μM of α-KB. 72 hours post treatment, the cells were lysed and luciferase activity was measured. JG-98, which is a suppressor of viral assembly, was used as a positive control and water was used as a negative control. […] To ensure that the anti-viral activity of α-KB is not the result of cytotoxicity, Huh7.5 cells were treated with 1 mM, 100 μM, 10 μM, 1 μM, and 100 nM α-KB. MTT assays were performed every 24 hours up to 72 hours post treatment. Luteolin, an anti-cancer compound which is cytotoxic, was used as a positive control and water was used as a negative control.

ATP synthase = ATP synthase inhibition

T1 sequence (A7MB35 30-390): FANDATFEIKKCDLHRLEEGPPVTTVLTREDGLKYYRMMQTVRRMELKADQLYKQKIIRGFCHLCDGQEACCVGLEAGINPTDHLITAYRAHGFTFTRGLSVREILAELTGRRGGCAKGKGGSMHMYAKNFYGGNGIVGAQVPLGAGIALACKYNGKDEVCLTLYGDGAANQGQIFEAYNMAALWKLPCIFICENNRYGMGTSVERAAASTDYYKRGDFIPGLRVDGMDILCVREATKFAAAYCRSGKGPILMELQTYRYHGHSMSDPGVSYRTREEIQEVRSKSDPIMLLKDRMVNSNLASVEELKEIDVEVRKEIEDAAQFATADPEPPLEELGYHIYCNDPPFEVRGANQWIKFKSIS
T1 sequence (P11966 31-359): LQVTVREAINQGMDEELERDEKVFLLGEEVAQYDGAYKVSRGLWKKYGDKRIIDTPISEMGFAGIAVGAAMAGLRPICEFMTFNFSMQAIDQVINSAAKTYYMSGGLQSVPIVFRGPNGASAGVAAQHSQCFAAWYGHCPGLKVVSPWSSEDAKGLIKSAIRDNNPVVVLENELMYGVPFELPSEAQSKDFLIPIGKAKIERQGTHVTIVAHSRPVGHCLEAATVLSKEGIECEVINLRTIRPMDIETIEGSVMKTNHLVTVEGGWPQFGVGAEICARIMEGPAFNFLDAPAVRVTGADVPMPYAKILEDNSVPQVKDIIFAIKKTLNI
T1 sequence (P11180 87-647 partner): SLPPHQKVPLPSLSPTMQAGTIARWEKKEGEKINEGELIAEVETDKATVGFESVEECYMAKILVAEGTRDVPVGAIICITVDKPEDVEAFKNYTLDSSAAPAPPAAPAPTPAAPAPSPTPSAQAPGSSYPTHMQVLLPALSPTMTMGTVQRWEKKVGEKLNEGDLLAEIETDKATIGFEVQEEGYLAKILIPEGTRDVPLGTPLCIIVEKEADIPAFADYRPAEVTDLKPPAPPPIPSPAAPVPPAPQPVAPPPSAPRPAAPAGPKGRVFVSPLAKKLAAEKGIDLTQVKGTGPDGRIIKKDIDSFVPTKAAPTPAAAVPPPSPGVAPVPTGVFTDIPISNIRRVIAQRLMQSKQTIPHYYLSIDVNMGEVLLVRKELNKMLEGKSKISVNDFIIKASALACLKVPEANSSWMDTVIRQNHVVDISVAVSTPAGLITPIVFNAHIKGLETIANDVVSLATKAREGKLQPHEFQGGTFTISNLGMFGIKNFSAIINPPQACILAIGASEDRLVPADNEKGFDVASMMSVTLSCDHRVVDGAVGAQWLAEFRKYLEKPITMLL
T1 sequence (P22439 54-501 partner): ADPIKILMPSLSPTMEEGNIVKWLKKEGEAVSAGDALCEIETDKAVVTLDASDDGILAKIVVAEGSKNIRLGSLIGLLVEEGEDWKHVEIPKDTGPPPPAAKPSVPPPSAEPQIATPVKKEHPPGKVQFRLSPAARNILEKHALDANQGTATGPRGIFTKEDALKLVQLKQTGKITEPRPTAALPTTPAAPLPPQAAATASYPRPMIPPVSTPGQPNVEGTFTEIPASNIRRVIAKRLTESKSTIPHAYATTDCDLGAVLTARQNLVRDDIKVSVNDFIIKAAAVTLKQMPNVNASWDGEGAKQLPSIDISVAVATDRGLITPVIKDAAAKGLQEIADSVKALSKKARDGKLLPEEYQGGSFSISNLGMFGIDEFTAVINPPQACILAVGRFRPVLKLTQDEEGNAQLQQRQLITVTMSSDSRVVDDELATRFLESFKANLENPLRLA
T1 sequence (F1N206 36-509 partner): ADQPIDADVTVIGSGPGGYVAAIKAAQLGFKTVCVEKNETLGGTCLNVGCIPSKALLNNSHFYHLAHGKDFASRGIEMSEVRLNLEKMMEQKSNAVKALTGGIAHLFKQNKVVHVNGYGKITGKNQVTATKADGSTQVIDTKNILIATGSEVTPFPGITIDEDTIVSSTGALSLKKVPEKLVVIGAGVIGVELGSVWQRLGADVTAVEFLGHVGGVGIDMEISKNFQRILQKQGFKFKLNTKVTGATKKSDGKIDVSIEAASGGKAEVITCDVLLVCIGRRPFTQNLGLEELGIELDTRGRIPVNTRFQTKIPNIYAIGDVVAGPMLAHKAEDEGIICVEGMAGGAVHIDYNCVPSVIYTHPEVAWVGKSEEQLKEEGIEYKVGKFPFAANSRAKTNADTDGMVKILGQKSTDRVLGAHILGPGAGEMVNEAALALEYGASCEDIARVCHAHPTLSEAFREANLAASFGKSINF

CCC(=O)C(=O)O [α-KB, α-ketobutyrate]
normalized PDH activity (percentage) (pyruvate dehydrogenase; 200 μM): 68.0±11.8 percentage
normalized PDH activity (percentage) (pyruvate dehydrogenase; 800 μM): 41.6±7.89 percentage
ratio of infarct size to AAR (male mice): 31.2±3.6
basal respiration (C2C12 Cells): inhibited
maximal respiration (mitochondrial respiration upon FCCP treatment) (C2C12 Cells): inhibited
delay of paralysis compared to vehicle treated worms (GMC101 C. elegans strain): up to 37%
HCV infection (luciferase activity) (HCV): inhibits or reduces viral infection
inhibition of ATP synthase (ATP synthase): does not inhibit

Source: patent US10729668B2, “Ketobutyrate compounds and compositions for treating age-related symptoms and diseases” (The Regents of the University of California, priority 2014, dated 2020)
